Patent US20250346613A1, “BORIC ACID PROTEASOME INHIBITOR AND USE THEREOF” (ARTIVILA BIOPHARMA, priority 2022, published 2025)

Legend:
Assay type in all cases: cell-based
[1] = target: T1, β5c subunit of the 20S proteasome (Homo sapiens, UniProt P20618+P28074); experiment: Proteasome inhibitory activity, β5c subunit (Raji cells treated with compound, lysed, Suc-LLVY-AMC substrate); settings: proteasome from Raji cells incubated with compound 4 h
T1 construct: The proteasome tested in the present disclosure was derived from Raji cells; endogenous in cells; host or cells: Raji cells
Excerpt: (§1) In the present disclosure, the fluorescent peptide substrate Ac-Ala-Asn-Trp-AMC (abbreviated as Ac-ANW-AMC) and the […] kit containing a fluorescent peptide substrate Suc-Leu-Leu-Val-Tyr-AMC (abbreviated as Suc-LLVY-AMC) (Promega, Item No. G8660) were used to detect the activities of the β5i subunit and β5c subunit of the 20S proteasome, respectively.
(§2) The proteasome tested in the present disclosure was derived from Raji cells, the fluorescent substrate Ac-ANW-AMC was purchased from Roche company, and other reagents were purchased from Sigma company. The experimental system was divided into two parts of cell lysis system and enzyme reaction system. […] The starting concentration of the compound (inhibitor) was 1 μM. It was diluted in a 3-fold serial dilution to a total of 8 concentrations, that is, the administration concentration can be 1 μM, 0.333 μM, 0.111 μM . . . , respectively, and the specific experimental process was described below.
(§3) Raji cells (1×10^6 cells) cryopreserved in liquid nitrogen were thawed rapidly in a water bath at 37° C. The cell pellet was transferred to a 15 mL centrifuge tube, added with 9 mL of fresh medium (Gibco RPMI1640 added with 10% fetal bovine serum and 1% double antibiotics), centrifuged at 120 g for 5 min, inoculated to 25 mL cell culture flasks, and passaged once every 2-3 days.
(§4) The compound was weighed and dissolved in DMSO to a concentration of 10 mM. The compound was then sequentially diluted to concentrations of 200 μM, 66.67 μM, 22.22 μM, 7.41 μM, 2.47 μM, 0.82 μM, 0.27 μM, and 0.091 μM with fresh medium. Raji cells in a good growth status were inoculated into a 48-well cell culture plate at 7×10^5 cells/mL.
(§5) Raji cells in a good growth status were taken and counted. They were then inoculated to a 48-well cell culture plate at 7×10^5 cells/mL. Each 5 μL of the various concentrations of diluted compounds above were taken and added to the culture plate inoculated with cells, and the lowest concentration of compound was 0 μM. The drug bortezomib (Velcade) and ONX-0914 were used as the positive control compounds. All cells were incubated at 37° C. for 4 h.
(§6) The compound-treated cells were sequentially transferred into 1.5 mL centrifuge tubes, centrifuged at 10000 rpm for 2 min, and the supernatants were removed. The cell pellet was resuspended in 1 mL of PBS, centrifuged at 10000 rpm for 2 min, and the supernatant was removed. Cells were resuspended by adding 100 μL of cell lysate (50 mM Tris of pH 7.5, 150 mM NaCl, 5 mM MgCl2, 5 mM ATP, 1 mM DTT, 0.01% NP-40, 1 mM Digitonin, and Cocktail), placed in an ice bath for 30 min, and centrifuged at 13000 rpm for 10 min.
(§7) 2 mg of fluorescent peptide substrate AC-ANW-AMC was dissolved in 424.7 μL of DMSO to obtain an 8 mM stock solution, and stored at −20° C. The stock solution was diluted 100-fold to a final concentration of […] for use in the reaction system. The fluorescent peptide substrate Suc-LLVY-AMC was prepared according to the instructions of the Promega kit.
(§8) Each 20 μL of the prepared proteasome solution above was added to a 96-well white luciferase microplate and added with 25 μL of AC-ANW-AM substrate buffer solution (50 mM Tris of pH 7.5, 150 mM NaCl, 5 mM MgCl2, 5 mM ATP, 80 uM Ac-ANW-AMC and 1 mM DTT) and 25 μL of Suc-LLVY-AMC substrate buffer solution for 10 min of reaction at 37° C. in the dark. Fluorescence values were read at 345 nm/445 nm by using a fluorence microplate reader.
(§9) The data were exported and the inhibition rate in percentage was calculated according to the following formula: Inhibition rate=(maximum signal value-compound signal value)/(maximum signal value−blank signal value)×100%.
(§10) Where the maximum signal was obtained from cell lysates treated with DMSO only, and the blank signal was obtained from wells containing only lysates.

[2] = target: T2, β5i subunit of the 20S proteasome (Homo sapiens, UniProt P20618+P28062); experiment: Proteasome inhibitory activity, β5i subunit (Raji cells treated with compound, lysed, Ac-ANW-AMC substrate); settings: proteasome from Raji cells incubated with compound 4 h
T2 construct: The proteasome tested in the present disclosure was derived from Raji cells; endogenous in cells; host or cells: Raji cells
Excerpt: as §1, §2, §3, §4, §5, §6, §7, §8, §9, §10

MM.1S cell strain = experiment: Inhibitory activity of cell strain (CellTiter-Glo); settings: Homo sapiens, MM1.S, 72 h incubation
Method: The cells used in this experiment were MM.1S cell strain and the detection reagent was CellTiter-Glo (Promega). […] The experimental process was described below. MM.1S cells in the logarithmic growth phase and in a good status were digested into individual cells by trypsin, centrifuged to remove the supernatant, and counted. Cells were diluted and 100 μL of cell suspension per well was added to a 96-well enzyme-coated plate at 1×10^5 cells per well. The wells containing only RPMI1640 complete medium were set as blank control. The 96-well plate was transferred to a 37° C. incubator containing 5% CO2 for 24 h of incubation.
The compound was accurately weighed and dissolved in DMSO to a concentration of 10^−2 M. 10 μL of compound was pipetted to 190 μL of DMSO to given a 5×10^−4 M compound. 6 μL of the compound (5×10^−5 M) was pipetted to a new 96-well microplate containing 194 μL of RPMI1640 complete medium and diluted in a 3-fold gradient dilution. 50 μL of the diluted compound was transferred to the 96-well microplate containing the cells such that the final compound concentrations were 5×10^−7 M, 1.67×10^−7 M, 5.55×10^−8 M, 1.85×10^−8 M, 6.17×10^−9 M, 2.06×10^−9 M, 6.86×10^−10 M, 2.29×10^−10 M, and 0 M. For the 0 M, no compound was added, and the same concentration of DMSO was added. The marketed drug bortezomib was used as a positive control. The 96-well microplate added with compounds was placed in the 37° C. incubator for 72 h of incubation.
At the predetermined detection time, the 96-well microplate to be detected was placed at room temperature, added with 40 μL of detection reagent (CellTiter-Glo) per well, and covered with a dark lid or piece of aluminium foil. The contents were mixed on an orbit oscillator for 10 min for complete cell lysis, with a vibration speed of 150 rpm. Luminescence values were detected on a multifunctional microplate reader (BioTek Synergy H1 Hybrid Multi-Mode Reade).
The data were exported and the percentage inhibition was calculated according to the following formula: Inhibition rate=(maximum signal value-compound signal value)/(maximum signal value−blank signal value)×100%, • wherein maximum signal was obtained from alone DMSO-treated cells, and blank signal was obtained from wells containing only culture medium.

Row | Compound | IC50 [1] [nM] | IC50 [2] [nM] | IC50 (MM.1S cell strain) [nM]
1 | CC(C)C[C@H](NC(=O)C(C)C(=O)NC1CCCCC1)B(O)O (stereo partly drawn) [Example 41, ((1R)-1-(3-(cyclohexylamino)-2-methyl-3-oxopropionamido)-3-methylbutyl)boric acid] | 50 to 200 | ≤ 50 | 50 to 200
2 | Cc1ccc(C[C@H](NC(=O)C(C)C(=O)NC2CCCCC2)B(O)O)cc1 (stereo partly drawn) [Example 42, ((1R)-1-(3-(cyclohexylamino)-2-methyl-3-oxopropionamido)-2-(p-tolyl)ethyl)boric acid] | ≤ 50 | ≤ 50 | 50 to 200
3 | COc1cccc(CNC(=O)C(C)C(=O)N[C@@H](Cc2ccc(C)cc2)B(O)O)c1 (stereo partly drawn) [Example 43, ((1R)-1-(3-((3-methoxybenzyl)amino)-2-methyl-3-oxopropionamido)-2-(p-tolyl)ethyl)boric acid] | ≤ 50 | ≤ 50 | ≤ 50
4 | O=C(CC(=O)N[C@@H](Cc1ccccc1)B(O)O)NCc1cccc(-c2ccccc2)c1 [Example 44, (R)-(1-(3-(([1,1′-biphenyl]-3-ylmethyl)amino)-3-oxopropionamido)-2-phenylethyl)boronic acid] | ≤ 50 | ≤ 50 | ≤ 50
5 | Cc1ccc(C[C@H](NC(=O)C(C)C(=O)NCc2cccc(-c3ccccc3)n2)B(O)O)cc1 (stereo partly drawn) [Example 45, ((1R)-1-(2-methyl-3-oxo-3-(((6-phenylpyridin-2-yl)methyl)amino)propionamide)-2-(p-tolyl)ethyl)boric acid] | ≤ 50 | ≤ 50 | ≤ 50
6 | COc1cccc(CNC(=O)CC(=O)N[C@@H](Cc2coc3ccccc23)B(O)O)c1 [Example 46, (R)-(2-(benzofuran-3-yl)-1-(3-((3-methoxybenzyl)amino)-3-oxopropionamido)ethyl)boric acid] | ≤ 50 | ≤ 50 | ≤ 50
7 | CC(C(=O)Nc1ccccc1)C(=O)N[C@@H](Cc1ccccc1)B(O)O (stereo partly drawn) [Example 47, ((1R)-1-(2-methyl-3-oxo-3-(phenylamino)propionylamino)-2-phenylethyl)boronic acid] | 50 to 200 | ≤ 50 | 200 to 500
8 | COc1cccc(CNC(=O)CC(=O)N[C@@H](CC(C)C)B(O)O)c1 [Example 48, (R)-(1-(3-((3-methoxybenzyl)amino)-3-oxopropionamido)-3-methylbutyl)boric acid] | ≤ 50 | ≤ 50 | ≤ 50
9 | COc1cccc(CNC(=O)CC(=O)N[C@@H](Cc2ccccc2)B(O)O)c1 [Example 49, (R)-(1-(3-((3-methoxybenzyl)amino)-3-oxopropionylamino)-2-phenylethyl)boric acid] | ≤ 50 | ≤ 50 | ≤ 50
10 | COc1cccc(CNC(=O)CC(=O)N[C@@H](Cc2ccc(C)cc2)B(O)O)c1 [Example 50, (R)-(1-(3-((3-methoxybenzyl)amino)-3-oxopropionylamino)-2-(p-tolyl)ethyl)boric acid] | ≤ 50 | ≤ 50 | ≤ 50
11 | Cc1ccc(C[C@H](NC(=O)C(C)(F)C(=O)NCc2cccc(-c3ccccc3)n2)B(O)O)cc1 (stereo partly drawn) [Example 56, ((1R)-1-(2-fluoro-2-methyl-3-oxo-3-(((6-phenylpyridin-2-yl)methyl)amino)propionylamino)-2-(p-tolyl)ethyl)boric acid] | ≤ 50 | ≤ 50 | 50 to 200
12 | CC(C(=O)NCc1cccc(-c2ccccc2)n1)C(=O)N[C@@H](Cc1coc2ccccc12)B(O)O (stereo partly drawn) [Example 57, ((1R)-2-(benzofuran-3-yl)-1-(2-methyl-3-oxo-3-(((6-phenylpyridin-2-yl)methyl)amino)propionamido)ethyl)boric acid] | ≤ 50 | ≤ 50 | ≤ 50

More lines, now with the values ahead:

Row | IC50 [1] [nM] | IC50 [2] [nM] | IC50 (MM.1S cell strain) [nM] | Compound
13 | ≤ 50 | ≤ 50 | 50 to 200 | CC(C(=O)NCc1cccc(-c2ccccc2)n1)C(=O)N[C@@H](Cc1ccc(-c2ccccc2)cc1)B(O)O (stereo partly drawn) [Example 58]
14 | ≤ 50 | ≤ 50 | ≤ 50 | CC(C(=O)NCc1ccc(Cl)cc1Cl)C(=O)N[C@@H](Cc1coc2ccccc12)B(O)O (stereo partly drawn) [Example 60, ((1R)-2-(benzofuran-3-yl)-1-(3-((2,4-dichlorobenzyl)amino)-2-methyl-3-oxopropionamido)ethyl) boric acid]
15 | ≤ 50 | ≤ 50 | ≤ 50 | COc1cccc(CCNC(=O)C(C)C(=O)N[C@@H](Cc2ccc(C)cc2)B(O)O)c1 (stereo partly drawn) [Example 62, ((1R)-1-(3-((3-methoxyphenylethyl)amino)-2-methyl-3-oxopropionamido)-2-(p-tolyl)ethyl)boric acid]
16 | ≤ 50 | ≤ 50 | ≤ 50 | COc1cccc(CCNC(=O)C(C)C(=O)N[C@@H](Cc2ccc(-c3ccccc3)cc2)B(O)O)c1 (stereo partly drawn) [Example 64, ((1R)-2-([1,1′-biphenyl]-4-yl)-1-(3-((3-methoxyphenylethyl)amino)-2-methyl-3-oxopropionamido)ethyl)boric acid]
17 | ≤ 50 | ≤ 50 | ≤ 50 | COc1cccc(CNC(=O)C(Cc2ccccc2)C(=O)N[C@@H](Cc2ccc(C)cc2)B(O)O)c1 (stereo partly drawn) [Example 65, ((1R)-1-(2-benzyl-3-((3-methoxybenzyl)amino)-3-oxopropionamido)-2-(p-tolyl)ethyl)boric acid]
18 | ≤ 50 | ≤ 50 | ≤ 50 | COc1cccc(CNC(=O)C(Cc2ccccc2)C(=O)N[C@@H](CC(C)C)B(O)O)c1 (stereo partly drawn) [Example 66, ((1R)-1-(2-benzyl-3-((3-methoxybenzyl)amino)-3-oxopropionamido)-3-methylbutyl)boronic acid]
